Measured values reported in patent US20080132529A1, “Method of improving bioavailability for non-sedating barbiturates” (priority 2006, published 2008).
Where “and” joins values, the source holds several entries; their conditions need not be identical. Identical values can stand only once.

Legend:
[1] = system: electroshock and chemoconvulsive seizures; details: animal studies; at doses which exhibited no neurological impairment; cited from earlier work
[2] = Phase I food-effect crossover pharmacokinetic study, single 400 mg oral dose of T2000 (DMMDPB), fasting vs fed; details: for Rate and extent of absorption when administered after a high fat, high calorie breakfast: fed vs fasting; for Rate and extent of absorption when administered after a high fat, high calorie breakfast / AUC(0-inf) / Cmax / half-life / Tmax / AUC0-t Ratio (Fasting/Fed) / T1/2 Ratio (Fasting/Fed) / Tmax Ratio (Fasting/Fed) / Cmax Ratio (Fasting/Fed) / AUC0-∞ Ratio (Fasting/Fed): single 400 mg oral dose of DMMDPB; for AUC(0-t) / AUC(0-inf) / Cmax / half-life / Tmax: male, human, plasma, po, 400 mg; for AUC(0-t): AUC0-t, plasma analyte after single 400 mg oral dose of DMMDPB; for AUC(0-t) / Cmax / Tmax / AUC0-t Ratio (Fasting/Fed) / Cmax Ratio (Fasting/Fed): n=23; for AUC(0-t) / AUC(0-inf): least-squares geometric mean; for AUC(0-inf): AUC0-∞; for AUC(0-inf) / half-life / AUC0-∞ Ratio (Fasting/Fed): n=18 for DMMDPB, n=20 for MMMDPB; for half-life / Tmax: arithmetic mean; for AUC0-t Ratio (Fasting/Fed): ratio fasting/fed of geometric means
Procedure: This was a single center, randomized, single dose, open-label, 2-way, food-effect crossover study to compare the rate and extent of absorption of T2000, administered as 4×100 mg capsules (for a total dose of 400 mg), under fasting and fed conditions. Subjects were confined to a clinical research facility from at least 11 hours prior to drug administration until after the 72.0-hour post-dose blood draw, in each period. Single oral doses were separated by a washout period of at least 21 days.
All subjects met the inclusion and exclusion criteria described in the protocol and were judged eligible for the study, based on medical history, demographic data (including sex, age, body weight [kg], height [cm], and BMI [kg/m2], medication history, physical examination, vital signs (blood pressure, respiratory rate, heart rate, and oral temperature), 12-lead ECG, brief neurological examination (including assessment of mental status, orientation, memory, arithmetic and spelling, eye movement, gait and coordination), opthalmology examination (lamp examination; performed within 3 months prior to the first dose), and clinical laboratory tests (hematology, biochemistry, urinalysis, HIV and hepatitis C [HCV] antibodies, and hepatitis B antigen [HBsAg]). […] Screening procedures took place within 28 days prior to Period 1 drug administration.
Subjects abstained from food or drink containing xanthine derivatives or xanthine-related compounds (e.g. coffee, tea, caffeine-containing sodas, colas, chocolate, or decaffeinated products) and energy drinks from 48 hours prior to drug administration, until the end of sample collection in each period; alcohol from 24 hours prior to drug administration, until the end of sample collection in each period, and grapefruit products (e.g. fresh, canned, or frozen); natural food supplements (including garlic as a supplement), and vitamins from 7 days prior to drug administration, until the end of sample collection in each period. Any subjects who felt dizzy or drowsy when they left the clinical facility were advised against performing activities requiring mental alertness, judgment, and physical coordination until they felt safe to do so.
Treatment A: The subjects fasted for at least 10 hours prior to drug administration.
Treatment B: After a supervised overnight fast of at least 10 hours, and 30 minutes before drug administration, subjects were served a standard high-fat, high-caloric breakfast of approximately 1000 calories (approximately 150 calories from protein, 250 calories from carbohydrates, and […]). […] Subjects were required to completely consume this breakfast within 30 minutes, and prior to drug administration. Subjects were dosed on the momrings of Apr. […] Subjects were administered the test or reference medication as a single oral dose of 4 capsules, each containing 100 mg of prodrug T2000 (total dose of 400 mg), with approximately 240 ml of water. Subjects were dosed as specified in the protocol, and subsequently fasted for a period of at least 4 hours. A mouth and hand check was performed to ensure the subjects had swallowed the study medication.
All blood samples were drawn into blood collection tubes (1×7 ml) containing EDTA K3 prior to drug administration and 0.500, 1.00, 2.00, 3.00, 4.00, 5.00, 6.00, 8.00, 10.0, 12.0, 15.0, 18.0, 24.0, 36.0, 48.0, 72.0, 96.0, and 120 hours post-dose in each period. All blood samples were collected via direct venipuncture.
Analysis of T-2000, MMMDPB and DPB were performed using High Performance Liquid Chromatographic Method with Tandem Mass. Spectrometry Detection. The analytical method was developed and validated.

[3] = Early pharmacokinetic studies in dogs, high fat meal vs customary dog food; type: in vivo
[4] = in vivo; cited from earlier work
[5] = Fed (high-fat breakfast 30 min before dose)

SMILES: COCN1C(=O)N(COC)C(=O)C(c2ccccc2)(c2ccccc2)C1=O [DMMDPB, 1,3-dimethoxymethyl-5,5-diphenyl barbituric acid]
- Anticonvulsant activity against electroshock and chemoconvulsive seizures [1]: anticonvulsant properties
- Rate and extent of absorption when administered after a high fat, high calorie breakfast [2]: increased
- AUC(0-t) ([2]; Fasting, healthy subjects): 3100 ng·h/mL
- AUC(0-t) [2, 5]: 8710 ng·h/mL
- AUC(0-inf) ([2]; Fasting): 5320 ng·h/mL
- AUC(0-inf) ([2]; Fed): 10800 ng·h/mL
- Cmax ([2]; Fasting): 129 ng/mL
- Cmax ([2]; Fed): 887 ng/mL
- half-life ([2]; T1/2, Fasting): 26.1 h
- half-life ([2]; T1/2, Fed): 18.5 h
- Tmax ([2]; Fasting): 7.52 h
- Tmax ([2]; Fed): 4.88 h
- Adverse events reported (total) ([2]; minor, occurred in both fed and fasting conditions, 23 subjects, single 400 mg oral doses): 35
- AUC0-t Ratio (Fasting/Fed) [2]: 35.6% and 35.57%
- T1/2 Ratio (Fasting/Fed) [2]: 141.55%
- Tmax Ratio (Fasting/Fed) [2]: 154.34%
- Cmax Ratio (Fasting/Fed) [2]: 14.6% and 14.58%
- AUC0-∞ Ratio (Fasting/Fed) [2]: 49.46%
- Tolerability ([2]; single 400 mg oral dose, fed and fasting, healthy males): well tolerated
- Absorption with a high fat meal compared with customary dog food [3]: more completely absorbed

SMILES: O=C1NC(=O)C(c2ccccc2)(c2ccccc2)C(=O)N1 [DPB, 5,5-diphenyl barbituric acid]
- Anticonvulsant activity against electroshock and chemoconvulsive seizures [1]: anticonvulsant properties
- Rate and extent of absorption when administered after a high fat, high calorie breakfast [2]: increased
- AUC(0-t) ([2]; Fasting, healthy subjects): 143000 ng·h/mL
- AUC(0-t) [2, 5]: 219000 ng·h/mL
- AUC(0-inf) ([2]; Fasting): 185000 ng·h/mL
- AUC(0-inf) ([2]; Fed): 271000 ng·h/mL
- Cmax ([2]; Fasting): 1750 ng/mL
- Cmax ([2]; Fed): 2790 ng/mL
- half-life ([2]; T1/2, Fasting): 43 h
- half-life ([2]; T1/2, Fed): 38.5 h
- Tmax ([2]; Fasting): 54.8 h
- Tmax ([2]; Fed): 48.3 h
- AUC0-t Ratio (Fasting/Fed) [2]: 65.3% and 65.28%
- T1/2 Ratio (Fasting/Fed) [2]: 111.62%
- Tmax Ratio (Fasting/Fed) [2]: 113.50%
- Cmax Ratio (Fasting/Fed) [2]: 62.9% and 62.93%
- AUC0-∞ Ratio (Fasting/Fed) [2]: 68.04%

SMILES: COCN1C(=O)NC(=O)C(c2ccccc2)(c2ccccc2)C1=O [MMMDPB, monomethoxymethyl-5,5-diphenyl barbituric acid]
- Rate and extent of absorption when administered after a high fat, high calorie breakfast [2]: increased
- AUC(0-t) ([2]; Fasting, healthy subjects): 36400 ng·h/mL
- AUC(0-t) [2, 5]: 99500 ng·h/mL
- AUC(0-inf) ([2]; Fasting): 54000 ng·h/mL
- AUC(0-inf) ([2]; Fed): 120000 ng·h/mL
- Cmax ([2]; Fasting): 898 ng/mL
- Cmax ([2]; Fed): 2820 ng/mL
- half-life ([2]; T1/2, Fasting): 26.8 h
- half-life ([2]; T1/2, Fed): 16.2 h
- Tmax ([2]; Fasting): 20.2 h
- Tmax ([2]; Fed): 8.83 h
- AUC0-t Ratio (Fasting/Fed) [2]: 36.6% and 36.56%
- T1/2 Ratio (Fasting/Fed) [2]: 165.33%
- Tmax Ratio (Fasting/Fed) [2]: 229.02%
- Cmax Ratio (Fasting/Fed) [2]: 31.9% and 31.86%
- AUC0-∞ Ratio (Fasting/Fed) [2]: 44.86%

SMILES: CCC1(c2ccccc2)C(=O)NC(=O)NC1=O [phenobarbital]
- Serum and brain levels on administration with food [4]: significantly decreased
